Data set [1] concerns Human immunodeficiency virus 1. The experiment in a line: Anti-viral activity against wild type HIV1 strain IIIB infected in human MT2 cells assessed as protection of cells from infection. It counts as functional, organism-based. The note with it: Human immunodeficiency virus 1, IIIB.
Data set [2] addresses Human immunodeficiency virus type 1 reverse transcriptase (Human immunodeficiency virus 1, UniProt Q72547). The experiment in a line: Inhibition of HIV1 reverse transcriptase using r(A)350 template and d(T)16 primer as substrate preincubated for 1 hr before adding substrate by PicoGreen EnzChek Reverse Transcriptase Assay.
For another data set, the system named is MT2. The experiment in a line: Cytotoxicity against human MT2 cells assessed as inhibition of cell growth. Type of data set: toxicity, cell-based.
A short description of data set [3]: Therapeutic index, ratio of CC50 for cytotoxicity against human MT2 cells to EC50 for antiviral activity against wild type HIV1 strain IIIB infected in human MT2 cells assessed as protection of cells from infection. Type of data set: toxicity, cell-based. The note with it: read-out: TI.

As usually defined, the EC50 is the concentration at which the effect is half-maximal. Broadly, the IC50 is the concentration needed to halve the response being measured. A high value points to a need for much substance. For orientation: CC50 means the concentration that lowers cell viability or growth by half.

With `C=CS(=O)(=O)CCOc1ccc(Cl)c(Oc2cc(Cl)cc(C#N)c2)c1`, the EC50 in data set [1] came to 5.7 µM. The molecule further registered an IC50 in data set [2] of 8 µM. Also, the CC50 in the data set on MT2 was determined as 7.5 µM.
On to `C=CC(=O)N(C)CCOc1cc(Cl)ccc1Oc1cccc2cc(C#N)ccc12`, for which, in data set [1], the EC50 was determined as 0.017 µM. Also, the IC50 in data set [2] came out at 0.025 µM. For the same molecule, the CC50 in the data set on MT2 turned out to be 16 µM.
As to `N#Cc1cc2c(Oc3ccccc3OCCC(=O)NCC(F)F)cccn2c1`, the EC50 in data set [1] turned out to be 2.1 µM. For the same molecule, in data set [2], the midpoint of inhibition, the IC50, lay at 1.3 µM. Besides, in the data set on MT2, the CC50 is over 100 µM.
In turn, `C=CS(=O)(=O)c1cccc(CCOc2cc(Cl)ccc2Oc2cc(Cl)cc(C#N)c2)c1` came in with an IC50 in data set [2] of 9 µM. For the same molecule, the CC50 in the data set on MT2 was 16 µM.
`C=CC(=O)Nc1cccc(CCOc2cc(Cl)ccc2Oc2cc(Cl)cc(C#N)c2)c1`: in data set [1], the EC50 worked out at 3.6 µM. For the same molecule, the IC50 in data set [2] stood at 0.06 µM. The CC50 with MT2 amounted to 17 µM.
In the same order, the values of `C=CC(=O)N(C)CCOc1ccccc1Oc1cccc2cc(C#N)ccc12` are 0.001 µM, under 0.01 µM and 4 µM.
On to `N#Cc1cc(Cl)cc(Oc2ccc(Cl)cc2OCc2ccccc2)c1`, for which the EC50 in data set [1] came out at 41 µM. The molecule further registered an IC50 in data set [2] of 1.3 µM. For the same molecule, in the data set on MT2, the CC50 was over 100 µM.
On to `C=CC(=O)NCCOc1ccc(Cl)c(Oc2cc(Cl)cc(C#N)c2)c1`, for which half-maximal inhibition in data set [2] (IC50) required 1.1 µM. For the same molecule, in the data set on MT2, the 50% cytotoxic concentration (CC50) is 32 µM.
For the molecule `N#Cc1cc(Cl)cc(Oc2ccc(Cl)cc2OCCn2cc(Cl)c(=O)[nH]c2=O)c1`, the EC50 in data set [1] was found to be 0.017 µM.
Take `N#Cc1ccc2c(Oc3ccccc3OCCC(=O)N3CCCC3)cccc2c1`: in data set [1], the EC50 worked out at 0.014 µM. The same molecule returned an IC50 in data set [2] of 0.02 µM. In addition, in the data set on MT2, the CC50 amounted to 20 µM.
In the same order, the values of `C=CC(=O)N(C)CCc1ccc(Cl)c(Oc2cc(Cl)cc(C#N)c2)c1` are 6.2 µM, 0.5 µM and 50 µM.
On the same counts, the results for `N#Cc1cc2c(Oc3ccccc3OCCC(=O)N3CCCC3)cccn2c1` are 0.017 µM, 0.02 µM and over 100 µM.
As to `CN(CCOc1ccc(Cl)c(Oc2cc(Cl)cc(C#N)c2)c1)C(=O)CCl`, in data set [2], the IC50 is 1.2 µM. In addition, in the data set on MT2, the CC50 was 1.3 µM.
Regarding `N#Cc1cc(Cl)cc(Oc2ccc(Cl)cc2OCCc2cccc(S(=O)(=O)F)c2)c1`, the EC50 in data set [1] is 45 µM. In data set [2], this molecule had a half-inhibitory concentration (IC50) of 0.15 µM. For the same molecule, in the data set with MT2, the CC50 was found to be 70 µM.
`C=CC(=O)Nc1cccc(COc2cc(Cl)ccc2Oc2cc(Cl)cc(C#N)c2)c1`: in data set [2], it took 0.9 µM to reach half-maximal inhibition (IC50). For the same molecule, the CC50 in the data set with MT2 worked out at 19 µM.
In the case of `CN(C)C(=O)CCOc1ccccc1Oc1cccc2cc(C#N)ccc12`, the EC50 in data set [1] was 0.003 µM. This molecule also came in with an IC50 in data set [2] of 0.02 µM. For the same molecule, the CC50 with MT2 stood at 33 µM.
In data set [2], `N#Cc1cc(Cl)cc(Oc2cc(CCNC(=O)CCl)ccc2Cl)c1` displayed an IC50 of 0.75 µM. The CC50 in the data set with MT2 is 2.7 µM.
`N#Cc1cc(Cl)cc(Oc2cc(OCCNC(=O)CCl)ccc2Cl)c1` registered an IC50 in data set [2] of 2.75 µM. Moreover, the CC50 in the data set on MT2 is 5.8 µM.
On the same counts, the results for `C=CS(=O)(=O)CCc1ccc(Cl)c(Oc2cc(Cl)cc(C#N)c2)c1` are 100 µM and 6 µM.
`C=CC(=O)N(C)CCOc1ccc(Cl)c(Oc2cccc3cc(C#N)ccc23)c1`: in data set [1], the EC50 was determined as 8.5 µM. The IC50 in data set [2] was under 0.01 µM. Moreover, the CC50 in the data set on MT2 was 25 µM.
In the same order, the values of `C=CC(=O)N(C)CCOc1ccccc1Oc1cc(Cl)cn2cc(C#N)cc12` are 0.048 µM, 0.02 µM and 33 µM.
For `C=CC(=O)N(C)CCOc1ccccc1Oc1cccn2cc(C#N)cc12`, the EC50 in data set [1] was determined as 0.003 µM. This molecule displayed an IC50 in data set [2] of under 0.01 µM. Besides, in the data set on MT2, the CC50 was found to be 8.8 µM.
Consider `N#Cc1cc2c(Oc3ccccc3OCCC(=O)N3CCOCC3)cccn2c1`, for which, in data set [1], the EC50 was 0.19 µM. The same molecule yielded an IC50 in data set [2] of 0.06 µM. In addition, the half-maximal cytotoxic concentration (CC50) in the data set on MT2 is over 100 µM.
In the same order, the values of `N#Cc1cc(Cl)cc(Oc2ccc(Cl)cc2OCCc2ccccc2)c1` are 3.1 µM, 0.06 µM and over 100 µM.
For the molecule `CN(CCc1ccc(Cl)c(Oc2cc(Cl)cc(C#N)c2)c1)C(=O)CCl`, in data set [2], the IC50 came out at 4.4 µM. For the same molecule, the CC50 with MT2 was found to be 0.47 µM.
Turning to `C=CC(=O)N(C)CCOc1ccc(Cl)c(Oc2cc(Cl)cc(C#N)c2)c1`, the EC50 in data set [1] came out at 10 µM. Half-maximal inhibition in data set [2] (IC50) was put at 0.75 µM. The CC50 in the data set with MT2 came out at 17 µM.
For the molecule `C=CC(=O)n1c(=O)n(CCOc2ccccc2Oc2cccc3cc(C#N)ccc23)c2ccccc21`, the EC50 in data set [1] turned out to be 0.001 µM. Further, the IC50 in data set [2] is under 0.005 µM. Further, the CC50 in the data set on MT2 came to 4.5 µM. In data set [3], the selectivity ratio was determined as 9000.
As for `C=CC(=O)N(C)CCOc1cc(Cl)ccc1Oc1cccn2cc(C#N)cc12`, the EC50 in data set [1] is 0.028 µM. This molecule registered an IC50 in data set [2] of 0.026 µM. Moreover, in the data set on MT2, the CC50 was determined as 30 µM.
Consider `C=CC(=O)NCCOc1cc(Cl)ccc1Oc1cc(Cl)cc(C#N)c1`, for which the EC50 in data set [1] was determined as 12.5 µM. This molecule yielded an IC50 in data set [2] of 60 µM. Moreover, in the data set with MT2, the CC50 amounted to 42 µM.
In the same order, the values of `C=CC(=O)N(C)CCOc1ccc(Cl)c(Oc2cccn3cc(C#N)cc23)c1` are 3.9 µM, 0.07 µM and 31 µM.
In the same order, the values of `C=CC(=O)N(C)CCOc1cc(Cl)ccc1Oc1cc(Cl)cc(C#N)c1` are 0.4 µM, 0.06 µM and 27 µM.
On the same counts, the results for `C=CC(=O)NCCc1ccc(Cl)c(Oc2cc(Cl)cc(C#N)c2)c1` are 3.1 µM, 0.4 µM and 29 µM.
Turning to `CN(C)C(=O)CCOc1ccccc1Oc1cccn2cc(C#N)cc12`, the EC50 in data set [1] is 0.036 µM. The IC50 in data set [2] was 0.02 µM. For the same molecule, the CC50 in the data set with MT2 is over 100 µM.
On the same counts, the results for `C=CC(=O)n1c(=O)n(CCOc2cc(Cl)ccc2Oc2cc(Cl)cc(C#N)c2)c2ccccc21` are 0.47 µM, 0.15 µM and 8 µM.

Source of the values: ChEMBL document CHEMBL5634149, “Covalent and noncovalent strategies for targeting Lys102 in HIV-1 reverse transcriptase” (Eur J Med Chem, 2023).
